± gives the expanded uncertainty stated by the source.
Assays:
[1] = Liquid; for mass density: 298.15 K, 101.33 kPa; for Normal boiling temperature: Ebulliometric method (Recirculating still)
[2] = refractive index (Na D-line) (dimensionless); conditions: 298.15 K; 101.33 kPa; Liquid; Standard Abbe refractometry

Compound | mass density [1] | Normal boiling temperature [1] | refractive index [2]
CCC(C)O (stereo unspecified) [butan-2-ol] | 802.35 ± 0.79 kg/m3 | 99.41 ± 0.3 °C | 1.3951 ± 0.0005
CCC(C)=O [butanone] | 799.62 ± 0.46 kg/m3 | 79.53 ± 0.3 °C | 1.3761 ± 0.0005

From the NIST ThermoML archive (doi:10.1021/je1004643)
